# Measured values as given in US9751840B2, “R-7-(3-aminomethyl-4-methoxyimino-3-methyl-pyrrolidin-1-yl)-1-cyclopropyl-6-fluoro-4-oxo-acid and L-aspartic acid salt, process for the preparation thereof and pharmaceutical composition comprising the same for antimicrobial” (ARIBIO CO. LTD., priority 2009, dated 2017).
# Read-outs that look alike come from different tables or passages of the source.
# Assays:
# Solubility test = assay type: physicochemical; conditions: room temperature, water
# [1] = Stability test in distilled water; assay type: physicochemical; conditions: 30 mg in 100 ml distilled water
# [2] = system: polychromatic erythrocyte with one or more nuclei (MNPCE); assay: In vivo genotoxicity, micronucleus test; conditions: male mice, intraperitoneal, 7.5 mg/kg
# Text: The following study performed to obtain in vivo genotoxicities, micronucleus test of L-aspartate and hydrochloric acid salt in male mice to the following procedure.
# [3] = In vivo pharmacokinetic test; design: species or system SD rats; conditions: rats; for AUC(0-t) / Cmax / Tmax: SD, rat, plasma
# Text: The L-aspartate and hydrochloride according to the present invention were orally or intravenously administered to SD rats, respectively and blood samples were collected at a predetermined time to compare in vivo pharmacokinetics.
# Then, Cmax: maximum drug concentration, Tmax: maximum drug concentration time, T1/2: drug half-life, AUCO-t: area under the plasma concentration-time curve from time zero to t hours, and AUCO-inf: area under the plasma concentration-time curve from time zero to infinity.
# [4] = In vivo tissue distribution test; design: species or system ICR mice; conditions: mouse, po; for Kp: ICR, 100 mg/kg
# Description: An in vivo tissue distribution test was performed in order to confirm the degree of drug distribution of the L-aspartate and hydrochloride according to the present invention in each organ. After 8-week-old ICR mice were purchased and adapted in the laboratory, each salt was orally administered to the mouse at a dose of 100 mg/kg. The mice were bled and sacrificed at a predetermined time and each organ was drawn to measure the concentration in each organ. After the administration of hydrochloride and L-aspartate, each organ concentration over time, the area under the corresponding time-concentration curve, and the ratio of permeation into tissue were shown in Tables 5 and 6.
# Then, P ratio is a ratio of permeation into muscle and calculated as intramuscular AUC/intraplasmic AUC.
# [5] = In vivo tissue distribution test; design: species or system ICR mice; conditions: ICR, mouse, spleen, po, 100 mg/kg; read-out: P ratio Spleen
# Male ICR mice = assay: Single dose toxicity in mice (LD50); conditions: single intraperitoneal dose, observed 14 days
# Description: The following experiment was performed in order to observe the degree of toxicity of the L-aspartate according to the present invention.
# Male ICR mice were used as experimental animals. 5 male ICR mice were divided into 6 dose groups, respectively and fasted except for water for 24 hours.
# [6] = male, testicle, ICR mice, p.o. 100 mg/kg, read-out: Testicle concentration
# [7] = brain, ICR mice, p.o. 100 mg/kg, read-out: Brain concentration
# [8] = heart, ICR mice, p.o. 100 mg/kg, read-out: Heart concentration
# [9] = kidney, ICR mice, p.o. 100 mg/kg, read-out: Kidney concentration
# [10] = liver, ICR mice, p.o. 100 mg/kg, read-out: Liver concentration
# [11] = lung, ICR mice, p.o. 100 mg/kg, read-out: Lung concentration
# [12] = muscle, ICR mice, p.o. 100 mg/kg, read-out: Muscle concentration
# [13] = plasma, ICR mice, p.o. 100 mg/kg, read-out: Plasma concentration
# [14] = spleen, ICR mice, p.o. 100 mg/kg, read-out: Spleen concentration
# [15] = testicle, ICR mice, p.o. 100 mg/kg, read-out: Testicle concentration
# [16] = thymus, ICR mice, p.o. 100 mg/kg, read-out: Thymus concentration
structure (smiles),measurement,setting,value
CON=C1CN(c2nc3c(cc2F)c(=O)c(C(=O)O)cn3C2CC2)C[C@@]1(C)CN.Cl [Hydrochloride (Comparative Example 3)],solubility,Solubility test,93.3 mg/mL
same,Content (%) 60? (after 3 weeks),"[1]; 60?, 3 weeks",90.0%
same,Content (%) Initial,[1]; initial,97.9%
same,Content (%) Room temperature (after 3 weeks),"[1]; room temperature, 3 weeks",98.0%
same,MNPCE number,[2],singificantly increase
same,AUC(0-t),"[3]; iv, i.v. 10 mg/kg",8720 ± 330 ng·h/mL
same,Cmax,"[3]; iv, i.v. 10 mg/kg",4460 ± 960 ng/mL
same,Tmax,"[3]; iv, i.v. 10 mg/kg",0 h
same,AUC(0-t),"[3]; po, p.o. 100 mg/kg",44400 ± 21400 ng·h/mL
same,Cmax,"[3]; po, p.o. 100 mg/kg",7620 ± 3930 ng/mL
same,Tmax,"[3]; po, p.o. 100 mg/kg",2.13 ± 1.97 h
same,BA (%),"[3]; p.o. 100 mg/kg, calculated by ratio of AUC0-t",50.96%
same,Kp,"[4]; brain, read-out: P ratio Brain",0.27
same,Kp,"[4]; heart, read-out: P ratio Heart",4.19
same,Kp,"[4]; kidney, read-out: P ratio Kidney",6.59
same,Kp,"[4]; liver, read-out: P ratio Liver",10.5
same,Kp,"[4]; lung, read-out: P ratio Lung",5.59
same,Kp,"[4]; muscle, read-out: P ratio Muscle",3.92
same,Kp,"[4]; thymus, read-out: P ratio Thymus",4.83
same,Kp,"[4]; male, testicle, read-out: P ratio Testicle",1.7
same,concentration at 0.5 h,[4]; [6],4790 ng/g
same,concentration at 1 h,[4]; [6],8360 ng/g
same,concentration at 8 h,[4]; [6],7770 ng/g
same,concentration at 0.5 h,[4]; [7],2510 ng/g
same,concentration at 1 h,[4]; [7],3090 ng/g
same,concentration at 1.5 h,[4]; [7],2720 ng/g
same,concentration at 2 hr,[4]; [7],3180 ng/g
same,concentration at 3 h,[4]; [7],1990 ng/g
same,concentration at 5 h,[4]; [7],1600 ng/g
same,concentration at 8 h,[4]; [7],730 ng/g
same,concentration at 0.5 h,[4]; [8],59300 ng/g
same,concentration at 1 h,[4]; [8],61200 ng/g
same,concentration at 1.5 hr,[4]; [8],52700 ng/g
same,concentration at 2 hr,[4]; [8],57600 ng/g
same,concentration at 3 h,[4]; [8],25500 ng/g
same,concentration at 5 h,[4]; [8],17300 ng/g
same,concentration at 8 h,[4]; [8],8860 ng/g
same,concentration at 0.5 h,[4]; [9],90800 ng/g
same,concentration at 1 h,[4]; [9],87800 ng/g
same,concentration at 1.5 h,[4]; [9],75500 ng/g
same,concentration at 2 hr,[4]; [9],69900 ng/g
same,concentration at 3 h,[4]; [9],43000 ng/g
same,concentration at 5 h,[4]; [9],32800 ng/g
same,concentration at 8 h,[4]; [9],18000 ng/g
same,concentration at 0.5 h,[4]; [10],161000 ng/g
same,concentration at 1 h,[4]; [10],125000 ng/g
same,concentration at 1.5 h,[4]; [10],113000 ng/g
same,concentration at 2 hr,[4]; [10],109000 ng/g
same,concentration at 3 h,[4]; [10],69000 ng/g
same,concentration at 5 h,[4]; [10],55700 ng/g
same,concentration at 8 h,[4]; [10],27000 ng/g
same,concentration at 0.5 h,[4]; [11],82800 ng/g
same,concentration at 1 h,[4]; [11],79500 ng/g
same,concentration at 1.5 h,[4]; [11],73600 ng/g
same,concentration at 2 hr,[4]; [11],63700 ng/g
same,concentration at 3 h,[4]; [11],38800 ng/g
same,concentration at 5 h,[4]; [11],23400 ng/g
same,concentration at 8 h,[4]; [11],11400 ng/g
same,concentration at 0.5 h,[4]; [12],39800 ng/g
same,concentration at 1 h,[4]; [12],52000 ng/g
same,concentration at 1.5 h,[4]; [12],50400 ng/g
same,concentration at 2 hr,[4]; [12],50800 ng/g
same,concentration at 3 h,[4]; [12],28300 ng/g
same,concentration at 5 h,[4]; [12],18400 ng/g
same,concentration at 8 h,[4]; [12],8260 ng/g
same,concentration at 0.5 h,[4]; [13],15500 ng/mL
same,concentration at 1 h,[4]; [13],14200 ng/mL
same,concentration at 1.5 h,[4]; [13],12100 ng/mL
same,concentration at 2 hr,[4]; [13],12000 ng/mL
same,concentration at 3 h,[4]; [13],6240 ng/mL
same,concentration at 5 h,[4]; [13],4320 ng/mL
same,concentration at 8 h,[4]; [13],2290 ng/mL
same,AUC(0-t),"[4]; plasma, ICR mice, p.o. 100 mg/kg, read-out: AUC0-t Plasma",53600 ng·h/mL
same,concentration at 0.5 h,[4]; [14],102000 ng/g
same,concentration at 1 h,[4]; [14],112000 ng/g
same,concentration at 1.5 hr,[4]; [14],107000 ng/g
same,concentration at 2 hr,[4]; [14],102000 ng/g
same,concentration at 3 h,[4]; [14],59800 ng/g
same,concentration at 5 h,[4]; [14],42100 ng/g
same,concentration at 8 h,[4]; [14],21500 ng/g
same,concentration at 1.5 hr,[4]; [15],12700 ng/g
same,concentration at 2 hr,[4]; [15],17000 ng/g
same,concentration at 3 h,[4]; [15],14200 ng/g
same,concentration at 5 h,[4]; [15],12900 ng/g
same,concentration at 0.5 h,[4]; [16],24600 ng/g
same,concentration at 1 h,[4]; [16],58000 ng/g
same,concentration at 1.5 hr,[4]; [16],60800 ng/g
same,concentration at 2 hr,[4]; [16],61300 ng/g
same,concentration at 3 h,[4]; [16],38400 ng/g
same,concentration at 5 h,[4]; [16],25700 ng/g
same,concentration at 8 h,[4]; [16],12800 ng/g
same,Kp,[5],8.66
same,Lethal dose 50,Male ICR mice,176 mg/kg
